In article PMC7509988 (2018):

Test system: E2 aptamer (DNA, aptamer) AAGGGATGCCGTTTGGGCCCAAGTTCGGCATAGTG
Experiment: graphene field-effect transistor
Details: 0.05 × PBS; pH 7.4, 5% DMSO, no interference; 4.67 nM with pH variation 6.5-8.0

Work on `C[C@]12CC[C@@H]3c4ccc(O)cc4CC[C@H]3[C@@H]1CC[C@@H]2O` yielded a KD of 4.21 nM.
